Measured values from patent publication US20050145571A1, “Extraction and recovery of ions from a solution” (priority 2001, published 2005).

Details: at 23° C

Q: For `O=S(=O)([O-])C(F)(F)C(F)(F)C(F)(F)C(F)(F)C(F)(F)C(F)(F)C(F)(F)C(F)(F)F.[K+]` [KPFS-8, potassium PFS-8], which solubility is on record?
A: The solubility was at most 1000 µg/mL.
